9 compounds from ChEMBL document CHEMBL5528039, “Discovery of a Macrocyclic Influenza Cap-Dependent Endonuclease Inhibitor” (J Med Chem, 2024) can be followed below.

In experiment [1] the test system is Influenza A virus. The experiment in a line: Selectivity ratio of EC50 for antiviral activity against Influenza A virus A/PR/8/34 PA-I38T infected in MDCK cells to EC50 for antiviral activity against Influenza A virus A/PR/8/34 (H1N1) infected in MDCK cells. Type of experiment: functional.
Experiment [2] has as its system Influenza A virus. The experiment in a line: Antiviral activity against Influenza A virus A/PR/8/34 PA-I38T infected in MDCK cells assessed as reduction in virus-induced cytopathic effect incubated for 5 days by CCK8 based microplate spectrophotometric analysis. Type of experiment: functional, organism-based. The following applies: for EC50: mdck; for EC90: time 5 day.

Experiment [3] deals with Influenza A virus. Description: Antiviral activity against baloxavir-resistant Influenza A virus A/PR/8/34 infected in MDCK cells assessed as reduction in virus-induced cytopathic effect incubated for 5 days by CCK8 based microplate spectrophotometric analysis. Type of experiment: functional, organism-based. The following applies: for EC50: mdck; for EC90: time 5 day. In general terms: Cytopathic effects are the visible damage that an infection or toxin causes in cultured cells.

Experiment [4] deals with Influenza A virus. Description: Selectivity ratio of EC50 for antiviral activity against baloxavir-resistant Influenza A virus A/PR/8/34 infected in MDCK cells to EC50 for antiviral activity against Influenza A virus A/PR/8/34 (H1N1) infected in MDCK cells. Type of experiment: functional.

One may read the EC50 as the concentration needed to bring the measured effect to its halfway point. Usually EC90 stands for the concentration at which the effect reaches the 90% level. Consider `CN1C(=O)c2c(O)c(=O)ccn2N2[C@H](c3ccc(F)cc3)c3cc(F)c(F)cc3OCC[C@@H]12`, for which the “Ratio EC50” value in the experiment on Influenza A virus [1] is given as 14. In addition, in the experiment with Influenza A virus [2], the EC50 was 193 nM and the EC90 was 370 nM.
As to `CN1C(=O)c2c(O)c(=O)ccn2N2[C@H](c3ccccc3)c3cc(F)c(F)cc3OCC[C@@H]12`, the “Ratio EC50” value with Influenza A virus [1] and in the experiment with Influenza A virus [4] was 9.2 throughout. Besides, the EC50 with Influenza A virus [3] and in the experiment on Influenza A virus [2] was 66 nM throughout. The EC90 in the experiment with Influenza A virus [3] and in the experiment with Influenza A virus [2] was 113 nM in each case.
Turning to `CN1C(=O)c2c(O)c(=O)ccn2N2[C@H](c3ccccc3F)c3cc(F)c(F)cc3OCC[C@@H]12`, the “Ratio EC50” value with Influenza A virus [1] amounted to 7.2. Moreover, in the experiment with Influenza A virus [2], the EC50 amounted to 79 nM and the EC90 is 123 nM.
For `CN1C(=O)c2c(O)c(=O)ccn2N2[C@H](c3ccccc3)c3ccccc3OCC[C@@H]12` the same measures were 15, 214 nM and 336 nM.
On the same counts, the results for `CN1C(=O)c2c(O)c(=O)ccn2N2[C@H](c3ccc(F)c(F)c3)c3cc(F)c(F)cc3OCC[C@@H]12` are 8.4, 211 nM and 393 nM.
For `CC(C)N1C(=O)c2c(O)c(=O)ccn2N2[C@H](c3ccccc3)c3ccccc3OCC[C@@H]12` (racemic) the same measures were 8.2, 435 nM and 675 nM.
With `CN1C(=O)c2c(O)c(=O)ccn2N2[C@H](c3ccccc3Br)c3cc(F)c(F)cc3OCC[C@@H]12` (racemic), the “Ratio EC50” value with Influenza A virus [1] is reported as 15. In the experiment with Influenza A virus [2], the concentration for a half-maximal effect (EC50) stood at 166 nM and the 90% effect concentration (EC90) worked out at 344 nM.
On the same counts, the results for `CN1C(=O)c2c(O)c(=O)ccn2N2[C@H](c3ccccc3)c3ccc(F)c(F)c3OCC[C@@H]12` (racemic) are 10, 512 nM and 795 nM.
In the case of `O=C1c2c(O)c(=O)ccn2N([C@@H]2c3ccccc3SCc3c2ccc(F)c3F)[C@@H]2COCCN12` [BALOXAVIR], the “Ratio EC50” value in the experiment on Influenza A virus [1] and in the experiment on Influenza A virus [4] was 68 each time. The EC50 in the experiment on Influenza A virus [3] and in the experiment on Influenza A virus [2] was 142 nM throughout. The concentration for an effect of 90% (EC90) in the experiment on Influenza A virus [3] and in the experiment with Influenza A virus [2] was 232 nM in each case.
